Patent US7879792B2, “Synthetic peptide inhibitors of thrombin and thrombin activation of protease activated receptors 1 and 4” (The Regents of the University of Michigan, priority 2005, dated 2011)
Like-named read-outs stand apart in the source and are kept apart here. Where a SMILES comes first, the peptide text is derived from it.

Key:
[1] = system: normal human citrated plasma; assay: thrombin clotting time (TCT); assay type: biochemical; details: 1 nM thrombin
Protocol: (§1) The influence of the various peptide formulations used in the present invention on established coagulation-based assays was determined. The activated partial thromboplastin time (APTT) is performed by mixing 0.05 ml normal human citrated plasma with 0.05 ml activated partial thromboplastin reagent purchased from Organon Teknika, Research Triangle Park, NC in the absence or presence of a peptide inhibitor. After incubation for 5 min at 37° C., the mixture is recalcified with 0.05 ml of 30 mM calcium chloride and the time to clot formation is measured in an Amelung KC4A instrument (Sigma Chemical Corp, St. Louis, Mo.) (Hasan et al. Thrombosis and Haemostasis. 82, 1182-1187 (1999)). The prothrombin time (PT) is performed by mixing 0.05 ml normal human citrated plasma with 0.05 ml Simplastin (Organon Teknika, Research Triangle Park, NC) followed by incubation for 3 min at 37° C. in the absence or presence of a peptide inhibitor. At the addition of 0.05 ml of 30 mM calcium chloride, the time to clot formation is measured in an KC4A instrument (Sigma Chemical Corp, St. Louis, Mo.) (Hasan et al. Thrombosis and Haemostasis. 82, 1182-1187 (1999)). The thrombin clotting time (TCT) is performed by adding 0.1 ml normal human citrated plasma in the absence or presence of a peptide inhibitor and 0.05 ml of a α-thrombin solution such that the final concentration of the thrombin in the entire mixture was 1 nM. Upon addition of the thrombin, the time to clot formation is measured in an KC4A instrument (Sigma Chemical Corp, St. Louis, Mo.).

[2] = system: γ-thrombin-induced platelet aggregation; assay: γ-thrombin-induced platelet aggregation in human platelet-rich plasma; assay type: cell-based; details: for Concentration of Peptide [mM] That Gives 100% Inhibition: 40 nM human gamma thrombin, human platelet-rich plasma; for concentration that abolished γ-thrombin-induced platelet aggregation: 40 nM γ-thrombin
Protocol: Fresh whole blood was collected and mixed with 0.013 M sodium citrate and platelet-rich plasma was prepared according to the method of Meloni et al., J. Biol. Chem. 266, 6786 (1991). Platelet-rich plasma with a normalized platelet count between 2-2.5×10^8 platelets/ml was added to a cuvette of an aggregometer (Chronlog Corp., Havertown, Pa.), standardized using the protocol of Meloni et al., supra. Peptides to be examined were added to the cuvette and the mixture stabilized for a few moments. Once the baseline was stabilized, γ-thrombin (10-70 nM) (Haematologic Technologies, Essex Junction, Vt.) was added to determine the minimal concentration of the agonist necessary to achieve full platelet aggregation. All investigations with peptides were performed using threshold concentrations of γ-thrombin. Aggregation was allowed to proceed for 5 minutes before stopping.
Table III is a tabulation of the library of peptides prepared and their influence on γ-thrombin-induced platelet aggregation in platelet-rich plasma. […] The numbers in the column represent the minimal concentration (mM) of the peptide that blocked 100% γ-thrombin-induced platelet aggregation of platelets in human platelet-rich plasma.
Human platelet samples were stimulated with 40 nM human gamma thrombin in each experiment.

[3] = target: γ-thrombin; assay: inhibition of γ-thrombin hydrolysis of chromogenic substrate; assay type: biochemical, human; details: read-out: Ki (μM) + SD, γIIa (2 nM), gamma-thrombin 2 nM, Sar-Pro-Arg-paranitroanilide
[4] = system: normal human citrated plasma; assay: prothrombin time (PT); assay type: biochemical
Protocol: as §1

[5] = target: human α-thrombin (Homo sapiens, UniProt P00734); assay: inhibition of α-thrombin hydrolysis of chromogenic substrate; assay type: biochemical; details: Ki (μM) + SD, αIIa (2 nM), alpha-thrombin 2 nM, Sar-Pro-Arg-paranitroanilide
[6] = system: normal human citrated plasma; assay: activated partial thromboplastin time (APTT); assay type: biochemical
Protocol: as §1

[7] = system: normal human lung fibroblasts (NHLF); assay: α-thrombin-induced calcium mobilization in normal human lung fibroblasts; assay type: cell-based; details: 2 nM alpha thrombin
Protocol: The second assay developed to assess peptides from the combinatorial libraries uses inhibition of α-thrombin-induced calcium mobilization in fibroblasts. Normal human lung fibroblasts (NHLF) were purchased from Clonetics, San Diego, Calif., an affiliate of Bio-Wittaker, Walkersville, Md. The cytoplasmic free Ca^2+ concentration ([Ca^2+]i) was measured using the fluorescent Ca^2+ indicator fura-2 (Molecular Probes, Inc., Eugene, Oreg.). Suspension of fibroblasts in Hepes-Tyrode's buffer were loaded with fura-2 by incubation at 37° C. with 2 μM fura-2/acetoxymethyl ester for 45 minutes according to the method of Rasmussen et al., J. Biol. Chem. 268, 14322 (1993). The labeled fibroblasts were separated from excess probe by washing by centrifugation at 1000 rpm (180 xg). Aliquots of the labeled fibroblasts were transferred into a quartz cuvette with a magnetic stirrer, which was then placed in a thermostatically controlled chamber at 37° C. in a fluorescence spectrophotometer (Perkin-Elmer LS50B spectrofluorometer, Chicago, Ill.). Reagents, test peptide, and α-thrombin (0.25-2 nM), were sequentially added directly to the cuvette. The excitation wavelengths varied between 340 and 380 nm. Fluorescence was measured by recording emitted light at 510 nm as reported by Fisher et al., Mol Pharm. 35, 195 (1989). The minimum emission was determined on a solubilized fibroblast sample in the presence of 10 mM EDTA; maximum emission was determined on the same sample with 10 mM Ca^2+ added. The intrafibroblast free Ca^2+ concentration was calculated by the method of Grykiewicz et al., J. Biol. Chem. 260, 3440 (1985). The ratio of the fluorescence readings was calculated as R=340/380 nm and processed according to the equation [Ca^2+]i=KD((R−Rmin)/Rmax−R))(Sf2/Sb2) to determine the intrafibroblast free Ca^2+ concentration. The KD for fura-2 was assumed to be 224 nM. Rmax and Rmin are the maximum and minimum fluorescence ratios measured at the end of the experiment, respectively; Sf2 and Sb2 are the fluorescence values at 380 nm in the absence and presence of saturating [Ca^2+], respectively. The reaction was monitored for 3-5 minutes.

SMILES | peptide concentration with significant prolongation (p<0.05) of the TCT [1] | Concentration of Peptide [mM] That Gives 100% Inhibition [2] | concentration that abolished γ-thrombin-induced platelet aggregation [2] | Ki [3] | peptide concentration with significant prolongation (p<0.05) of the PT [4] | Ki [5] | peptide concentration with significant prolongation (p<0.05) of the APTT [6] | inhibition of thrombin-induced calcium mobilization ([7]; 0.005 mM peptide) | inhibition of thrombin-induced calcium mobilization ([7]; 0.02 mM peptide) | Ki ([3]; listed as rOicPsF(p-I)) | Ki ([3]; listed as rOicPsF(p-NO2))
C[C@@H](NC(=O)[C@@H]1CCCN1C(=O)[C@@H]1C[C@@H]2CCCC[C@@H]2N1C(=O)[C@H](N)CCCNC(=N)N)C(=O)N[C@@H](Cc1ccc(Br)cc1)C(N)=O [rOicPaF(p-Br), D-Arg-Oic-Pro-D-Ala-Phe(p-Br)] (HELM PEPTIDE1{[dR].[O=C([C@@H]1C[C@@H]2CCCC[C@@H]2N1[*:1])[*:2]].P.[dA].[O=C([C@H](Cc1ccc(Br)cc1)N[*:1])[*:2]].[am]}$$$$V2.0) | 0.78 µM | 0.018 mM | 18 µM | 48.7 ± 7 µM | 6.25 µM | 6.4 to 10.6 µM | 12.5 µM | 35% | 84% |  | 
C[C@@H](NC(=O)[C@@H]1CCCN1C(=O)[C@@H]1C[C@@H]2CCCC[C@@H]2N1C(=O)[C@H](N)CCCNC(=N)N)C(=O)N[C@@H](Cc1ccc(I)cc1)C(N)=O [rOicPaF(p-I), D-Arg-Oic-Pro-D-Ala-Phe(p-I)] (HELM PEPTIDE1{[dR].[O=C([C@@H]1C[C@@H]2CCCC[C@@H]2N1[*:1])[*:2]].P.[dA].[O=C([C@H](Cc1ccc(I)cc1)N[*:1])[*:2]].[am]}$$$$V2.0; N-terminus assumed) | 0.78 µM | 0.023 mM | 23 µM |  | 6.25 µM |  | 25 µM | 36% | 88% | 59.2 ± 13 µM | 
C[C@@H](NC(=O)[C@@H]1CCCN1C(=O)[C@@H]1C[C@@H]2CCCC[C@@H]2N1C(=O)[C@H](N)CCCNC(=N)N)C(=O)N[C@@H](Cc1ccc([N+](=O)[O-])cc1)C(N)=O [rOicPaF(p-NO2), D-Arg-Oic-Pro-D-Ala-Phe(p-NO2)] (HELM PEPTIDE1{[dR].[O=C([C@@H]1C[C@@H]2CCCC[C@@H]2N1[*:1])[*:2]].P.[dA].[O=C([C@H](Cc1ccc([N+](=O)[O-])cc1)N[*:1])[*:2]].[am]}$$$$V2.0; N-terminus assumed) | 1.56 µM | 0.033 mM | 33 µM |  | 6.25 µM |  | 50 µM | 26% | 47% |  | 87.9 ± 16 µM
